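The concentration for 50% growth inhibition is given as GI50. TGI is the concentration that stops growth completely.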
Key:
Assay in all cases: growth of human tumour cells (NCI), 384-well format
HCC-2998 colon = system: HCC-2998 colon
786-0 renal = system: 786-0 renal
IGROV1 ovarian = system: IGROV1 ovarian
SK-OV-3 ovarian = system: SK-OV-3 ovarian
HT29 colon = system: HT29 colon
SR leukemia = system: SR leukemia
SK-MEL-28 melanoma = system: SK-MEL-28 melanoma
MALME-3M melanoma = system: MALME-3M melanoma
MOLT-4 leukemia = system: MOLT-4 leukemia
CCRF-CEM leukemia = system: CCRF-CEM leukemia
UACC-257 melanoma = system: UACC-257 melanoma
MDA-MB-231 breast = system: MDA-MB-231 breast
HCT-15 colon = system: HCT-15 colon
NCI-H522 lung = system: NCI-H522 lung
DU-145 prostate = system: DU-145 prostate
MCF7 breast = system: MCF7 breast
OVCAR-4 ovarian = system: OVCAR-4 ovarian
A498 renal = system: A498 renal
NCI-H226 lung = system: NCI-H226 lung
UACC-62 melanoma = system: UACC-62 melanoma
U251 glioblastoma = system: U251 glioblastoma
SNB-19 CNS = system: SNB-19 CNS
OVCAR-3 ovarian = system: OVCAR-3 ovarian
BT-549 breast = system: BT-549 breast
T-47D breast = system: T-47D breast
SNB-75 CNS = system: SNB-75 CNS
OVCAR-5 ovarian = system: OVCAR-5 ovarian
OVCAR-8 ovarian = system: OVCAR-8 ovarian

CCc1ccc(/C=C2/SC(=S)NC2=O)cc1
GI50 (HCC-2998 colon): 21.6 µM
TGI (HCC-2998 colon): 43.6 µM
GI50 (786-0 renal): 28.6 µM
TGI (786-0 renal): 88 µM
GI50 (IGROV1 ovarian): 30.5 µM
TGI (IGROV1 ovarian): > 100 µM
GI50 (SK-OV-3 ovarian): 18.5 µM
TGI (SK-OV-3 ovarian): 43.2 µM
GI50 (HT29 colon): 24.9 µM
TGI (HT29 colon): 57.2 µM
GI50 (SR leukemia): 12.5 µM
TGI (SR leukemia): 25.1 µM
GI50 (SK-MEL-28 melanoma): 24.7 µM
TGI (SK-MEL-28 melanoma): 55.2 µM
GI50 (MALME-3M melanoma): 15.9 µM
TGI (MALME-3M melanoma): 33.9 µM
GI50 (MOLT-4 leukemia): 16.9 µM
TGI (MOLT-4 leukemia): 30.6 µM
GI50 (CCRF-CEM leukemia): 16.5 µM
TGI (CCRF-CEM leukemia): 30.3 µM
GI50 (UACC-257 melanoma): 21.3 µM
TGI (UACC-257 melanoma): 42.1 µM
GI50 (MDA-MB-231 breast): 20.7 µM
TGI (MDA-MB-231 breast): 49.5 µM
GI50 (HCT-15 colon): 18.5 µM
TGI (HCT-15 colon): 44 µM
GI50 (NCI-H522 lung): 14.7 µM
TGI (NCI-H522 lung): 36.9 µM
GI50 (DU-145 prostate): 27.7 µM
TGI (DU-145 prostate): 85.3 µM
GI50 (MCF7 breast): 26.2 µM
TGI (MCF7 breast): 68 µM
GI50 (OVCAR-4 ovarian): 13.6 µM
TGI (OVCAR-4 ovarian): 46.9 µM
GI50 (A498 renal): 16.7 µM
TGI (A498 renal): 33.1 µM
GI50 (NCI-H226 lung): 16.7 µM
TGI (NCI-H226 lung): 36.5 µM
GI50 (UACC-62 melanoma): 31.1 µM
TGI (UACC-62 melanoma): 83.2 µM
GI50 (U251 glioblastoma): 17.3 µM
TGI (U251 glioblastoma): 33.1 µM
GI50 (SNB-19 CNS): 33.4 µM
TGI (SNB-19 CNS): > 100 µM
GI50 (OVCAR-3 ovarian): 18 µM
TGI (OVCAR-3 ovarian): 36.5 µM
GI50 (BT-549 breast): 19.7 µM
TGI (BT-549 breast): 36.1 µM
GI50 (T-47D breast): 23.6 µM
TGI (T-47D breast): 49.4 µM
GI50 (SNB-75 CNS): 21.4 µM
TGI (SNB-75 CNS): 51.2 µM
GI50 (OVCAR-5 ovarian): 17.5 µM
TGI (OVCAR-5 ovarian): 43.5 µM
GI50 (OVCAR-8 ovarian): 22.8 µM
TGI (OVCAR-8 ovarian): 51 µM

— PubChem BioAssay (NCI)
